Source: patent publication US20050239656A1, “Pyridine compounds or salts thereof and herbicides containing the same” (priority 2002, published 2005)

Assays:
japanese bulrush = assay: Test Example 3: paddy pot test, application under submerged conditions; type: in vivo, Scirpus juncoides; conditions: submerged application at 0.5 leaf stage, visually observed 14 days after application, 0 = non-treated, 100 = complete kill
Method in brief: (§1)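 Paddy soil pots; seeds sown, lightly covered; flooded 0.5–1 cm in greenhouse; wapato tubers planted day 1–2; flood raised to 3–4 cm. Submerged pipette application at 0.5 leaf / primary leaf stage. Visual score day 14, 0–100%.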

crabgrass [1] = assay: Test Example 2: soil surface treatment, upland pot test; type: in vivo, Digitaria sanguinalis L.; conditions: active ingredient 1000 g/ha, observed 20th to 28th day
Method in brief: (§2)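 Herbicidal effect is given as percent growth control, assessed by eye 20 to 28 days post-spray against untreated plants (0) and full kill (100). Treatment: soil-surface application one day after sowing, formulated product diluted in 1,500 L/ha water, upland soil, 1/170,000 ha pots.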

crabgrass [2] = assay: Test Example 1: foliage treatment, upland pot test; type: in vivo, Digitaria sanguinalis L.; conditions: active ingredient 1000 g/ha, observed 18th to 23rd day, 0 = non-treated, 100 = complete kill
velvetleaf [3] = assay: Test Example 2: soil surface treatment, upland pot test; type: in vivo, Abutilon theophrasti MEDIC.; conditions: active ingredient 1000 g/ha, observed 20th to 28th day
Method in brief: as §2

japanese ribbon wapato = assay: Test Example 3: paddy pot test, application under submerged conditions; type: in vivo, Sagittaria pygniaea; conditions: submerged application at primary leaf stage, visually observed 14 days after application, 0 = non-treated, 100 = complete kill
Method in brief: as §1

barnyardgrass [4] = assay: Test Example 2: soil surface treatment, upland pot test; type: in vivo, Echinochloa crus-galli L.; conditions: active ingredient 1000 g/ha, observed 20th to 28th day, 0 = non-treated, 100 = complete kill
Method in brief: as §2

corn [5] = assay: as above; type: in vivo, Zea mays L.; conditions: active ingredient 1000 g/ha, observed 20th to 28th day
Method in brief: as §2

rice (var. Nihonbare) = assay: Test Example 3: paddy pot test, transplanted rice; type: in vivo, Oryza sativa L.; conditions: applied 4th day after transplantation, visually observed 21st day after application, 0 = non-treated, 100 = complete kill
Method in brief: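 Visual crop-injury rating (0 = as untreated, 100 = complete kill, %) taken 21 days post-application. Treatment: formulated compound, water-diluted, pipetted into 3–4 cm flood water at a preset active-ingredient dose, 4 days after transplanting 2-leaf Nihonbare rice 3 cm deep in puddled paddy soil.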

soybean [6] = assay: Test Example 1: foliage treatment, upland pot test; type: in vivo, Glycine max Merr.; conditions: crop, active ingredient 1000 g/ha, observed 18th to 23rd day, 0 = non-treated, 100 = complete kill
Method in brief: (§3)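 Foliage tx, upland soil pots; stages: wheat 1.3-2.4 L, rice 1.2-2.6 L, soybean 0.1-0.4 L, barnyardgrass 1.3-2.8 L. WP/EC diluted, 500 L/ha water + 0.1% (v/v) agricultural spreader, small sprayer. Visual rating d18–23, 0–100% control.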

tall morningglory = assay: Test Example 1: foliage treatment, upland pot test; type: in vivo, Ipomoea purpurea L.; conditions: active ingredient 1000 g/ha, observed 18th to 23rd day, 0 = non-treated, 100 = complete kill
From the text: Upland field soil was put into a 1/170,000 ha pot, and seed of various plants were sown. Then, when the plants reached predetermined leaf stages ((1) barnyardgrass: 1.3 to 2.8 leaf stages, (2) crabgrass: 1.0 to 2.8 leaf stages, (3) green foxtail: 1.3 to 2.6 leaf stages, (4) redroot pigweed: 0.1 to 1.2 leaf stages, (5) prickly sida: 0.1 to 1.2 leaf stages, (6) velvetleaf: 0.1 to 1.2 leaf stages, (7) tall morningglory: 0.1 to 1.5 leaf stages, (8) rice: 1.2 to 2.6 leaf stages, (9) wheat: 1.3 to 2.4 leaf stages, (10) corn, 2.1 to 3.2 leaf stages, (11) soybean: 0.1 to 0.4 leaf stage), a wettable powder or emulsifiable concentrate having the compound of the present invention formulated in accordance with a usual formulation method, was weighed so that the active ingredient would be a predetermined amount, and diluted with water in an amount of 500 L/ha. To the diluted solution, 0.1% (v/v) of agricultural spreader was added. The herbicide thus adjusted was applied by a small size sprayer for foliage treatment. On the 18th to 23rd days after the application of the herbicide, the growth of the respective plants was visually observed, and the herbicidal effects were evaluated by the growth controlling degrees (%) ranging from 0 (equivalent to the non-treated plot) to 100 (complete kill), whereby the results shown in Table 3, were obtained.

prickly sida [7] = assay: Test Example 1: foliage treatment, upland pot test; type: in vivo, Sida spinosa L.; conditions: active ingredient 1000 g/ha, observed 18th to 23rd day, 0 = non-treated, 100 = complete kill
green foxtail [8] = assay: Test Example 2: soil surface treatment, upland pot test; type: in vivo, Setaria viridis L.; conditions: active ingredient 1000 g/ha, observed 20th to 28th day
Method in brief: as §2

green foxtail [9] = assay: Test Example 1: foliage treatment, upland pot test; type: in vivo, Setaria viridis L.; conditions: active ingredient 1000 g/ha, observed 18th to 23rd day, 0 = non-treated, 100 = complete kill
rice [10] = assay: Test Example 1: foliage treatment, upland pot test; type: in vivo, Oryza sativa L.; conditions: crop, active ingredient 1000 g/ha, observed 18th to 23rd day, 0 = non-treated, 100 = complete kill
Method in brief: as §3

corn [11] = assay: Test Example 1: foliage treatment, upland pot test; type: in vivo, Zea mays L.; conditions: crop, active ingredient 1000 g/ha, observed 18th to 23rd day, 0 = non-treated, 100 = complete kill
Method in brief: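 Corn seeds were sown in upland field soil held in a 1/170,000 ha pot and grown to the 2.1 to 3.2 leaf stage. A wettable powder or emulsifiable concentrate of the test compound was diluted with water at 500 L/ha, given 0.1% (v/v) agricultural spreader, and sprayed onto the foliage with a small sprayer. Growth controlling degree (%) was scored visually 18th to 23rd days later, from 0 (non-treated) to 100 (complete kill).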

wheat [12] = assay: Test Example 2: soil surface treatment, upland pot test; type: in vivo, Triticum spp.; conditions: active ingredient 1000 g/ha, observed 20th to 28th day
Method in brief: as §2

rice [13] = assay: as above; type: in vivo, Oryza sativa L.; conditions: active ingredient 1000 g/ha, observed 20th to 28th day
Method in brief: as §2

redroot pigweed [14] = assay: as above; type: in vivo, Amaranthus retroflexus L.; conditions: active ingredient 1000 g/ha, observed 20th to 28th day
Method in brief: as §2

barnyardgrass [15] = assay: Test Example 1: foliage treatment, upland pot test; type: in vivo, Echinochloa crus-galli L.; conditions: active ingredient 1000 g/ha, observed 18th to 23rd day, 0 = non-treated, 100 = complete kill
Method in brief: as §3

wheat [16] = assay: Test Example 1: foliage treatment, upland pot test; type: in vivo, Triticum spp.; conditions: crop, active ingredient 1000 g/ha, observed 18th to 23rd day, 0 = non-treated, 100 = complete kill
Method in brief: as §3

prickly sida [17] = assay: Test Example 2: soil surface treatment, upland pot test; type: in vivo, Sida spinosa L.; conditions: active ingredient 1000 g/ha, observed 20th to 28th day
Method in brief: as §2

velvetleaf [18] = assay: Test Example 1: foliage treatment, upland pot test; type: in vivo, Abutilon theophrasti MEDIC.; conditions: active ingredient 1000 g/ha, observed 18th to 23rd day, 0 = non-treated, 100 = complete kill
redroot pigweed [19] = assay: Test Example 1: foliage treatment, upland pot test; type: in vivo, Amaranthus retroflexus L.; conditions: active ingredient 1000 g/ha, observed 18th to 23rd day, 0 = non-treated, 100 = complete kill
soybean [20] = assay: Test Example 2: soil surface treatment, upland pot test; type: in vivo, Glycine max Merr.; conditions: active ingredient 1000 g/ha, observed 20th to 28th day
Method in brief: as §2

barnyardgrass [21] = assay: Test Example 3: paddy pot test, application under submerged conditions; type: in vivo, Echinochloa crus-galli L.; conditions: submerged application at 0.5 leaf stage, visually observed 14 days after application, 0 = non-treated, 100 = complete kill
Method in brief: as §1

SMILES | Growth controlling degree (%) Crabgrass (crabgrass [1]) [%] | Growth controlling degree (%) Crabgrass (crabgrass [2]) [%] | Growth controlling degree (%) Velvetleaf (velvetleaf [3]) [%] | Growth controlling degree (%) Barnyardgrass (barnyardgrass [4]) [%] | Growth controlling degree (%) Corn (corn [5]) [%] | Growth controlling degree (%) Soybean (soybean [6]) [%] | Growth controlling degree (%) Tall morningglory (tall morningglory) [%] | Growth controlling degree (%) Prickly sida (prickly sida [7]) [%] | Growth controlling degree (%) Green foxtail (green foxtail [8]) [%] | Growth controlling degree (%) Green foxtail (green foxtail [9]) [%] | Growth controlling degree (%) Rice (rice [10]) [%] | Growth controlling degree (%) Corn (corn [11]) [%] | Growth controlling degree (%) wheat (wheat [12]) [%] | Growth controlling degree (%) Rice (rice [13]) [%] | Growth controlling degree (%) Redroot pigweed (redroot pigweed [14]) [%] | Growth controlling degree (%) Barnyardgrass (barnyardgrass [15]) [%] | Growth controlling degree (%) wheat (wheat [16]) [%] | Growth controlling degree (%) Prickly sida (prickly sida [17]) [%] | Growth controlling degree (%) Velvetleaf (velvetleaf [18]) [%] | Growth controlling degree (%) Redroot pigweed (redroot pigweed [19]) [%] | also measured
CCC(=O)N(CC)C(c1cnccc1C(F)(F)F)c1cccc2ccccc12 (stereo not drawn) [I-44] | 90 | 80 | 0 | 80 | 10 | 50 | 90 | 80 | 100 | 70 | 10 | 10 | 40 | 40 | 0 | 60 | 20 | 0 | 95 | 70 | Growth controlling degree (%) Japanese bulrush (japanese bulrush; active ingredient 500 g/ha): 95%; Growth controlling degree (%) Japanese ribbon wapato (japanese ribbon wapato; active ingredient 500 g/ha): 100%; Growth controlling degree (%) Rice (rice (var. Nihonbare); active ingredient 500 g/ha): 30%; Growth controlling degree (%) Soyabean (soybean [20]): 0%; Growth controlling degree (%) Barnyardgrass (barnyardgrass [21]; active ingredient 500 g/ha): 90%
CC(C)C(c1cnccc1C(F)(F)F)N(C)C(=O)Cc1cccc(Br)c1 (stereo not drawn) [I-16] | 100 | 80 | 60 | 98 | 30 | 70 | 80 | 80 | 100 | 70 | 10 | 0 | 30 | 30 | 95 | 70 | 40 | 80 | 80 | 80 | Growth controlling degree (%) Japanese bulrush (japanese bulrush; active ingredient 250 g/ha): 90%; Growth controlling degree (%) Japanese ribbon wapato (japanese ribbon wapato; active ingredient 250 g/ha): 30%; Growth controlling degree (%) Rice (rice (var. Nihonbare); active ingredient 250 g/ha): 10%; Growth controlling degree (%) Soyabean (soybean [20]): 0%; Growth controlling degree (%) Barnyardgrass (barnyardgrass [21]; active ingredient 250 g/ha): 100%
COC(=O)N(C)C(c1cnccc1C(F)(F)F)c1cccc2ccccc12 (stereo not drawn) [I-46] | 90 | 95 | 50 | 100 | 10 | 95 | 95 | 80 | 95 | 50 | 30 | 40 | 30 | 10 | 10 | 80 | 30 | 60 | 95 | 90 | Growth controlling degree (%) Japanese bulrush (japanese bulrush; active ingredient 500 g/ha): 100%; Growth controlling degree (%) Japanese ribbon wapato (japanese ribbon wapato; active ingredient 500 g/ha): 90%; Growth controlling degree (%) Rice (rice (var. Nihonbare); active ingredient 500 g/ha): 10%; Growth controlling degree (%) Soyabean (soybean [20]): 0%; Growth controlling degree (%) Barnyardgrass (barnyardgrass [21]; active ingredient 500 g/ha): 100%
CCN(C(=O)Cc1c(F)cccc1F)C(c1cnccc1C(F)(F)F)C(C)C (stereo not drawn) [I-30, N-ethyl-N-[2-methyl-1-(4-trifluoromethylpyridin-3-yl)propyl]2,6-difluorophenylacetamide] |  |  |  |  |  |  |  |  |  |  |  |  |  |  |  |  |  |  |  |  | Growth controlling degree (%) Japanese bulrush (japanese bulrush; active ingredient 250 g/ha): 90%; Growth controlling degree (%) Japanese ribbon wapato (japanese ribbon wapato; active ingredient 250 g/ha): 80%; Growth controlling degree (%) Rice (rice (var. Nihonbare); active ingredient 250 g/ha): 0%; melting point: 121.9 °C; Growth controlling degree (%) Barnyardgrass (barnyardgrass [21]; active ingredient 250 g/ha): 100%
CC(C)C(c1cnccc1C(F)(F)F)N(C)C(=O)Cc1ccccc1Br (stereo not drawn) [I-15] | 100 | 70 | 60 | 100 | 40 | 40 | 80 | 80 | 100 | 80 | 10 | 0 | 30 | 40 | 70 | 70 | 20 | 70 | 70 | 70 | Growth controlling degree (%) Japanese bulrush (japanese bulrush; active ingredient 250 g/ha): 95%; Growth controlling degree (%) Japanese ribbon wapato (japanese ribbon wapato; active ingredient 250 g/ha): 100%; Growth controlling degree (%) Rice (rice (var. Nihonbare); active ingredient 250 g/ha): 10%; Growth controlling degree (%) Soyabean (soybean [20]): 20%; Growth controlling degree (%) Barnyardgrass (barnyardgrass [21]; active ingredient 250 g/ha): 100%
